Measurements: US5416191A, “Bradykinin antagonists” (Cortech, Inc., priority 1993, dated 1995)
Like-named read-outs stand apart in the source and are kept apart here. Peptide text beside a SMILES is read from it.

Assays:
[1] = target: T1, bradykinin receptor of the B2 class (rat uterus) (Rattus norvegicus, UniProt P25023); assay: Rat uterus (RU) in vitro, antagonism of bradykinin
T1 construct: concentration effect curves to bradykinin (BK) on rat uterus in vitro; from tissue; host or cells: rat uterus
T1 sequence (P25023 1-396): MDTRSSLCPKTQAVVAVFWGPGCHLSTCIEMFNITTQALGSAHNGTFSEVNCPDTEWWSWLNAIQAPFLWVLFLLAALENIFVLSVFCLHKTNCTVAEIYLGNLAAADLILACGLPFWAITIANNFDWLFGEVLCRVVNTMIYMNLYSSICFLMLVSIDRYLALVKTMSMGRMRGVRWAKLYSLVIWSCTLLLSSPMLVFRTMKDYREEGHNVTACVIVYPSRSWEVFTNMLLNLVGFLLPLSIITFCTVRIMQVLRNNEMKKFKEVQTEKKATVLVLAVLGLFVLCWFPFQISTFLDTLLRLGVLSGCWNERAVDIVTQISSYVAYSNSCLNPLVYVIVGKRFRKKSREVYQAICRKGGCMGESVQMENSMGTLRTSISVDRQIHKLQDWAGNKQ
Protocol: Thus in vitro studies were performed on standard assay systems, namely, guinea-pig ileum (GPI), rat uterus (RU) and rabbit jugular vein (RJV). […] The PA2 can be defined as the negative logarithm of the molar concentration of the antagonist in the presence of which the potency of the agonist is reduced two-fold, i.e. twice the amount of agonist is required to produce a given response in the presence of, than in the absence of, the antagonist. A high potency of antagonism is indicated by a high PA2 value, i.e., a low concentration of antagonist is effective.
The percentage recovery (% Rec) was also determined for compounds with respect to each assay.
With respect to duration of activity, it is noted that after exposure to the highest concentration of antagonist, each tissue was washed extensively and then assessed for recovery from the antagonist effect.
Potency in the rat uterus assay was assessed as described above and PA2 values determined.

[2] = target: T2, bradykinin receptor of the B2 class (guinea-pig ileum) (Cavia porcellus, UniProt O70526); conditions: Table B; Cys position scan, monomers and BMH dimers
T2 sequence (O70526 1-372): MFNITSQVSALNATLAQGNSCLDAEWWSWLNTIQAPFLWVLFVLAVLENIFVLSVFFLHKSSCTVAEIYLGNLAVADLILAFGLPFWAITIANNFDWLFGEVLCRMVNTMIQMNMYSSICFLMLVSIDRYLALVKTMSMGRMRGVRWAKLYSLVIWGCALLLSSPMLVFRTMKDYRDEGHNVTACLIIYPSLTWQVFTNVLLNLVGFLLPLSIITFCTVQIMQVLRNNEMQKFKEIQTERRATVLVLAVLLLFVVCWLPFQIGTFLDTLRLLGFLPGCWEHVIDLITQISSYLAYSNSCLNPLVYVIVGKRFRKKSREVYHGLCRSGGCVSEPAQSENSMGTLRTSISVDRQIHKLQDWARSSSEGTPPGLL

[3] = target: T2, bradykinin receptor of the B2 class (guinea-pig ileum)
[4] = Table C, rat uterus, P.A. = Partial Agonist
[5] = Table C, rat uterus, read-out: pA2 DIMER (converted)
[6] = Table E, read-out: RAT UTERUS pA2 (converted)

Structure (SMILES)	pA2 MONOMER [1, 4]	pA2 GUINEA PIG ILEUM [2]	Kb [3] [nM]	further results
CC(C)C[C@H](NC(=O)[C@@H](Cc1ccccc1)NC(=O)[C@H](CO)NC(=O)[C@H](Cc1ccccc1)NC(=O)[C@H](CS)NC(=O)[C@@H]1C[C@@H](O)CN1C(=O)[C@@H]1CCCN1C(=O)[C@H](CCCNC(=N)N)NC(=O)[C@H](N)CCCNC(=N)N)C(=O)N[C@@H](CCCNC(=N)N)C(=O)O [CP-0136] (HELM PEPTIDE1{[dR].R.P.[Hyp].C.F.S.[dF].L.R}$$$$V2.0)	Inactive	Inactive		
CC(C)C[C@H](NC(=O)[C@@H](Cc1ccccc1)NC(=O)[C@H](CO)NC(=O)[C@H](Cc1ccccc1)NC(=O)[C@H](CSC1CC(=O)N(CCCCCCN2C(=O)CC(SC[C@H](NC(=O)[C@@H]3C[C@@H](O)CN3C(=O)[C@@H]3CCCN3C(=O)[C@H](CCCNC(=N)N)NC(=O)[C@H](N)CCCNC(=N)N)C(=O)N[C@@H](Cc3ccccc3)C(=O)N[C@@H](CO)C(=O)N[C@H](Cc3ccccc3)C(=O)N[C@@H](CC(C)C)C(=O)N[C@@H](CCCNC(=N)N)C(=O)O)C2=O)C1=O)NC(=O)[C@@H]1C[C@@H](O)CN1C(=O)[C@@H]1CCCN1C(=O)[C@H](CCCNC(=N)N)NC(=O)[C@H](N)CCCNC(=N)N)C(=O)N[C@@H](CCCNC(=N)N)C(=O)O (some centres unmarked) [CP-0137] (HELM PEPTIDE1{[dR].R.P.[Hyp].C.F.S.[dF].L.R}|PEPTIDE2{[dR].R.P.[Hyp].C.F.S.[dF].L.R}|CHEM1{[O=C1CC([*:1])C(=O)N1CCCCCCN1C(=O)CC([*:2])C1=O]}$PEPTIDE1,CHEM1,5:R3-1:R1|PEPTIDE2,CHEM1,5:R3-1:R2$$$V2.0)		Inactive		pA2 DIMER ([1]; Table C, rat uterus): Inactive
CC(C)C[C@H](NC(=O)[C@H](CS)NC(=O)[C@H](CO)NC(=O)[C@H](Cc1ccccc1)NC(=O)CNC(=O)[C@@H]1C[C@@H](O)CN1C(=O)[C@@H]1CCCN1C(=O)[C@H](CCCNC(=N)N)NC(=O)[C@H](N)CCCNC(=N)N)C(=O)N[C@@H](CCCNC(=N)N)C(=O)O [CP-0145] (HELM PEPTIDE1{[dR].R.P.[Hyp].G.F.S.C.L.R}$$$$V2.0)	Inactive	Inactive		
CC(C)C[C@H](NC(=O)[C@@H](CS)NC(=O)[C@H](CO)NC(=O)[C@H](Cc1ccccc1)NC(=O)CNC(=O)[C@@H]1C[C@@H](O)CN1C(=O)[C@@H]1CCCN1C(=O)[C@H](CCCNC(=N)N)NC(=O)[C@H](N)CCCNC(=N)N)C(=O)N[C@@H](CCCNC(=N)N)C(=O)O [CP-0146] (HELM PEPTIDE1{[dR].R.P.[Hyp].G.F.S.[dC].L.R}$$$$V2.0)	Inactive	Inactive		
N=C(N)NCCC[C@@H](N)C(=O)N[C@@H](CCCNC(=N)N)C(=O)N1CCC[C@H]1C(=O)N1C[C@H](O)C[C@H]1C(=O)NCC(=O)N[C@@H](Cc1ccccc1)C(=O)N[C@@H](CO)C(=O)N[C@H](Cc1ccccc1)C(=O)N[C@@H](CS)C(=O)N[C@@H](CCCNC(=N)N)C(=O)O [CP-0147] (HELM PEPTIDE1{[dR].R.P.[Hyp].G.F.S.[dF].C.R}$$$$V2.0)	Inactive	Inactive		
CC(C)C[C@H](NC(=O)[C@@H](Cc1ccccc1)NC(=O)[C@H](CO)NC(=O)[C@H](Cc1ccccc1)NC(=O)CNC(=O)[C@@H]1C[C@@H](O)CN1C(=O)[C@@H]1CCCN1C(=O)[C@H](CCCNC(=N)N)NC(=O)[C@H](N)CCCNC(=N)N)C(=O)N[C@@H](CS)C(=O)O [CP-0148] (HELM PEPTIDE1{[dR].R.P.[Hyp].G.F.S.[dF].L.C}$$$$V2.0)	Inactive	Inactive		% REC MONOMER ([1]; Table C, rat uterus): 100%; Kb ([1]; Table C, rat uterus, P.A. = Partial Agonist, read-out: pA2 MONOMER (converted)): 200 nM
CC(C)C[C@H](NC(=O)[C@@H](Cc1ccccc1)NC(=O)[C@H](CO)NC(=O)[C@H](CSC1CC(=O)N(CCCCCCN2C(=O)CC(SC[C@H](NC(=O)CNC(=O)[C@@H]3C[C@@H](O)CN3C(=O)[C@@H]3CCCN3C(=O)[C@H](CCCNC(=N)N)NC(=O)[C@H](N)CCCNC(=N)N)C(=O)N[C@@H](CO)C(=O)N[C@H](Cc3ccccc3)C(=O)N[C@@H](CC(C)C)C(=O)N[C@@H](CCCNC(=N)N)C(=O)O)C2=O)C1=O)NC(=O)CNC(=O)[C@@H]1C[C@@H](O)CN1C(=O)[C@@H]1CCCN1C(=O)[C@H](CCCNC(=N)N)NC(=O)[C@H](N)CCCNC(=N)N)C(=O)N[C@@H](CCCNC(=N)N)C(=O)O (some centres unmarked) [CP-0156] (HELM PEPTIDE1{[dR].R.P.[Hyp].G.C.S.[dF].L.R}|PEPTIDE2{[dR].R.P.[Hyp].G.C.S.[dF].L.R}|CHEM1{[O=C1CC([*:1])C(=O)N1CCCCCCN1C(=O)CC([*:2])C1=O]}$PEPTIDE1,CHEM1,6:R3-1:R1|PEPTIDE2,CHEM1,6:R3-1:R2$$$V2.0)			~12.6	% REC DIMER ([1]; Table C, rat uterus): 75%; Kb [1, 5]: 7.94 nM
CC(C)C[C@H](NC(=O)[C@@H](Cc1ccccc1)NC(=O)[C@H](CO)NC(=O)[C@H](Cc1ccccc1)NC(=O)CNC(=O)[C@@H]1C[C@@H](O)CN1C(=O)[C@@H]1CCCN1C(=O)[C@H](CCCNC(=N)N)NC(=O)[C@H](N)CSC1CC(=O)N(CCCCCCN2C(=O)CC(SC[C@@H](N)C(=O)N[C@@H](CCCNC(=N)N)C(=O)N3CCC[C@H]3C(=O)N3C[C@H](O)C[C@H]3C(=O)NCC(=O)N[C@@H](Cc3ccccc3)C(=O)N[C@@H](CO)C(=O)N[C@H](Cc3ccccc3)C(=O)N[C@@H](CC(C)C)C(=O)N[C@@H](CCCNC(=N)N)C(=O)O)C2=O)C1=O)C(=O)N[C@@H](CCCNC(=N)N)C(=O)O (some centres unmarked) [CP-0161] (HELM PEPTIDE1{[dC].R.P.[Hyp].G.F.S.[dF].L.R}|PEPTIDE2{[dC].R.P.[Hyp].G.F.S.[dF].L.R}|CHEM1{[O=C1CC([*:1])C(=O)N1CCCCCCN1C(=O)CC([*:2])C1=O]}$PEPTIDE1,CHEM1,1:R3-1:R1|PEPTIDE2,CHEM1,1:R3-1:R2$$$V2.0)			~501	% REC DIMER ([1]; Table C, rat uterus): 100%; Kb [1, 5]: 316 nM
CC(C)C[C@H](NC(=O)[C@@H](Cc1ccccc1)NC(=O)[C@H](CSC1CC(=O)N(c2ccc(N3C(=O)CC(SC[C@H](NC(=O)[C@H](Cc4ccccc4)NC(=O)CNC(=O)[C@@H]4C[C@@H](O)CN4C(=O)[C@@H]4CCCN4C(=O)[C@H](CCCNC(=N)N)NC(=O)[C@H](N)CCCNC(=N)N)C(=O)N[C@H](Cc4ccccc4)C(=O)N[C@@H](CC(C)C)C(=O)N[C@@H](CCCNC(=N)N)C(=O)O)C3=O)cc2)C1=O)NC(=O)[C@H](Cc1ccccc1)NC(=O)CNC(=O)[C@@H]1C[C@@H](O)CN1C(=O)[C@@H]1CCCN1C(=O)[C@H](CCCNC(=N)N)NC(=O)[C@H](N)CCCNC(=N)N)C(=O)N[C@@H](CCCNC(=N)N)C(=O)O (some centres unmarked) [CP-0170] (HELM PEPTIDE1{[dR].R.P.[Hyp].G.F.C.[dF].L.R}|PEPTIDE2{[dR].R.P.[Hyp].G.F.C.[dF].L.R}|CHEM1{[O=C1CC([*:1])C(=O)N1c1ccc(N2C(=O)CC([*:2])C2=O)cc1]}$PEPTIDE1,CHEM1,7:R3-1:R1|PEPTIDE2,CHEM1,7:R3-1:R2$$$V2.0)			~501	RAT UTERUS % RECOVERED ([1]; Table E): 100%; Kb [1, 6]: 100 nM
CC(C)C[C@H](NC(=O)[C@@H](Cc1ccccc1)NC(=O)[C@H](CSC1CC(=O)N(CCN(CCN2C(=O)CC(SC[C@H](NC(=O)[C@H](Cc3ccccc3)NC(=O)CNC(=O)[C@@H]3C[C@@H](O)CN3C(=O)[C@@H]3CCCN3C(=O)[C@H](CCCNC(=N)N)NC(=O)[C@H](N)CCCNC(=N)N)C(=O)N[C@H](Cc3ccccc3)C(=O)N[C@@H](CC(C)C)C(=O)N[C@@H](CCCNC(=N)N)C(=O)O)C2=O)CCN2C(=O)CC(SC[C@H](NC(=O)[C@H](Cc3ccccc3)NC(=O)CNC(=O)[C@@H]3C[C@@H](O)CN3C(=O)[C@@H]3CCCN3C(=O)[C@H](CCCNC(=N)N)NC(=O)[C@H](N)CCCNC(=N)N)C(=O)N[C@H](Cc3ccccc3)C(=O)N[C@@H](CC(C)C)C(=O)N[C@@H](CCCNC(=N)N)C(=O)O)C2=O)C1=O)NC(=O)[C@H](Cc1ccccc1)NC(=O)CNC(=O)[C@@H]1C[C@@H](O)CN1C(=O)[C@@H]1CCCN1C(=O)[C@H](CCCNC(=N)N)NC(=O)[C@H](N)CCCNC(=N)N)C(=O)N[C@@H](CCCNC(=N)N)C(=O)O (some centres unmarked) [CP-0176] (HELM PEPTIDE1{[dR].R.P.[Hyp].G.F.C.[dF].L.R}|PEPTIDE2{[dR].R.P.[Hyp].G.F.C.[dF].L.R}|PEPTIDE3{[dR].R.P.[Hyp].G.F.C.[dF].L.R}|CHEM1{[O=C1CC([*:1])C(=O)N1CCN(CCN1C(=O)CC([*:2])C1=O)CCN1C(=O)CC([*:3])C1=O]}$PEPTIDE1,CHEM1,7:R3-1:R1|PEPTIDE2,CHEM1,7:R3-1:R2|PEPTIDE3,CHEM1,7:R3-1:R3$$$V2.0)			~100	RAT UTERUS % RECOVERED ([1]; Table E): 50%; Kb [1, 6]: 2.51 nM
